{"source": "patent US4745124A", "about": "“Orally effective anti-hypertensive agents” (priority 1983, dated 1988)", "key": {"serum ACE [1]": {"tested_on": "serum ACE", "assay": "oral effectiveness: intrinsic serum ACE activity in rats", "type": "in vivo, female Sprague-Dawley rat", "conditions": "oral 1 mg/kg", "procedure": "B. In certain experiments, as identified, an alternative assay system was employed using [^3 H]-HipGlyGly as substrate as described by Ryan, J. W., et al., Biochem. J. 167 501 (1977).\nFemale Sprague-Dawley rats, approximately 250 g weight, were fasted overnight and then administered either 0.5 ml of saline, via stomach tube, or 0.5 ml saline containing compound (I) at a dose of 1 mg per kg of body weight. At timed intervals the rats were beheaded using a guillotine and 3 ml-5 ml blood was collected. The sera were assayed for intrinsic ACE activity, using the assay of Example 216B."}, "serum ACE [2]": {"tested_on": "serum ACE", "assay": "oral effectiveness: intrinsic serum ACE activity in unanesthetized rabbits", "type": "in vivo", "conditions": "oral 1 mg, about 1 kg rabbit", "procedure": "A. ACE activity assay. For most experiments described herein, the enzyme ACE was assayed in 0.05M Hepes buffer, pH 8.0 containing 0.1M NaCl and 0.75M Na2 SO4. The substrate employed was Benzoyl-GlyHisLeu at a final concentration of 1×10^-4 M, together with about 130,000 cpm of [^3 H]-Benzoyl GlyHisLeu (25 Ci/mmole). Enzyme was diluted in the above buffer such that 40 μl buffered enzyme was capable of hydrolyzing 13% of substrate in a 15-minute incubation at 37° C. To initiate the assay, 40 μl of enzyme and 10 μl of water or inhibitor dissooved in water were preincubated for five minutes at 37° C. Substrate, 50 μl, was then added to initiate reaction and the solution was incubated for 15 minutes at 37° C. To terminate the reaction, 1 ml of 0.1M HCl was added, following which 1 ml of ethyl acetate was added. The mixture was agitated on a rotary mixer and centrifuged briefly to separate the phases.\nYoung, unanesthetized rabbits, fasted overnight, weighing about 1 kg, were given compound (I). The compound was dissolved in water at alkaline pH, 1 mg of (I) in 3 ml water containing 50 μl 1N NaHCO3. Blood samples, 0.5 ml, were collected at timed intervals from a marginal ear vein. Sera obtained after clot formation and centrifugation were assayed for intrinsic ACE activity, using 1 μl in the assay of Example 216A."}, "[3]": {"tested_on": "pressor effects of angiotensin II", "assay": "oral: blood pressure response to angiotensin II in anesthetized rats", "type": "in vivo, rat", "conditions": "2 or 5 mg/kg, angiotensin II 80 ng", "procedure": "Rats (210-290 g body weight) were fasted overnight and then anesthetized with intraperitoneal pentobarbital, 50-60 mg/kg. Tracheostomy was performed and the animals were ventilated mechanically. A cannula was inserted into a femoral vein for injection of angiotensin I or II, and a second cannula was inserted into a common carotid artery for direct measurement of arterial blood pressure. Heparin, 1,000 units, was injected via the femoral vein to prevent coagulation. Blood pressure was measured with a pressure transducer connected to a polygraph. The rats were injected with 80 ng of angiotensin I or angiotensin II in 20 μl of 0.9 g % NaCl; an amount of antiotensin I or II sufficient to raise mean arterial blood pressure by 27-40 mm Hg. After the responsiveness of a given rat to angiotensins I and II was established, compound (I), at 2 or 5 mg/kg (drug dissolved in 0.5 ml of H2 O plus 10 μl of 1N NaHCO3), was given via a stomach tube. At timed intervals, the effects of 80 ng of angiotensin I or angiotensin II on mean arterial blood pressure were tested.\nRats were prepared as described in Example 222. Compound (II) [N-benzoyl-L-phenylalanylthiopropanoyl)-L-proline] was given orally, via a stomach tube, at a dose of 12 mg/kg or 20 mg/kg. Compound (II) was dissolved in 0.5 ml of H2 O plus 10 μl of 1N NaHCO3. […]"}}, "data": [{"smiles": "C[C@H](CSC(=O)C(Cc1ccccc1)NC(=O)c1ccccc1)C(=O)N1CCC[C@H]1C(=O)O", "note": "(stereo partly drawn) [Compound (I), 2-benzoylphenylalanylthio-2-D-methylpropanoyl-L-proline]", "values": [{"measurement": "Serum ACE activity", "setting": "serum ACE [1]; 5 min, run 1", "value": "100% of Control"}, {"measurement": "Serum ACE activity", "setting": "serum ACE [1]; 5 min, run 2", "value": "100% of Control"}, {"measurement": "Serum ACE activity", "setting": "serum ACE [1]; 10 min, run 1", "value": "65% of Control"}, {"measurement": "Serum ACE activity", "setting": "serum ACE [1]; 10 min, run 2", "value": "52% of Control"}, {"measurement": "Serum ACE activity", "setting": "serum ACE [1]; 30 min, run 1", "value": "50% of Control"}, {"measurement": "Serum ACE activity", "setting": "serum ACE [1]; 30 min, run 2", "value": "45% of Control"}, {"measurement": "Serum ACE activity", "setting": "serum ACE [1]; 60 min, run 1", "value": "50% of Control"}, {"measurement": "Serum ACE activity", "setting": "serum ACE [1]; 60 min, run 2", "value": "42% of Control"}, {"measurement": "Serum ACE activity", "setting": "serum ACE [1]; 90 min, run 1", "value": "20% of Control"}, {"measurement": "Serum ACE activity", "setting": "serum ACE [1]; 90 min, run 2", "value": "20% of Control"}, {"measurement": "Serum ACE activity", "setting": "serum ACE [2]; 0.167 h, Rabbit 1", "value": "7% of Control"}, {"measurement": "Serum ACE activity", "setting": "serum ACE [2]; 0.167 h, Rabbit 2", "value": "11% of Control"}, {"measurement": "Serum ACE activity", "setting": "serum ACE [2]; 0.33 h, Rabbit 1", "value": "8% of Control"}, {"measurement": "Serum ACE activity", "setting": "serum ACE [2]; 0.33 h, Rabbit 2", "value": "9% of Control"}, {"measurement": "Serum ACE activity", "setting": "serum ACE [2]; 0.5 h, Rabbit 1", "value": "7% of Control"}, {"measurement": "Serum ACE activity", "setting": "serum ACE [2]; 0.5 h, Rabbit 2", "value": "8% of Control"}, {"measurement": "Serum ACE activity", "setting": "serum ACE [2]; 1.0 h, Rabbit 1", "value": "20% of Control"}, {"measurement": "Serum ACE activity", "setting": "serum ACE [2]; 1.0 h, Rabbit 2", "value": "44% of Control"}, {"measurement": "Serum ACE activity", "setting": "serum ACE [2]; 1.5 h, Rabbit 1", "value": "14% of Control"}, {"measurement": "Serum ACE activity", "setting": "serum ACE [2]; 1.5 h, Rabbit 2", "value": "55% of Control"}, {"measurement": "Serum ACE activity", "setting": "serum ACE [2]; 2.0 h, Rabbit 1", "value": "11% of Control"}, {"measurement": "Serum ACE activity", "setting": "serum ACE [2]; 2.0 h, Rabbit 2", "value": "44% of Control"}, {"measurement": "Serum ACE activity", "setting": "serum ACE [2]; 2.5 h, Rabbit 1", "value": "12% of Control"}, {"measurement": "Serum ACE activity", "setting": "serum ACE [2]; 2.5 h, Rabbit 2", "value": "40% of Control"}, {"measurement": "Serum ACE activity", "setting": "serum ACE [2]; 3.0 h, Rabbit 1", "value": "30% of Control"}, {"measurement": "Serum ACE activity", "setting": "serum ACE [2]; 4.0 h, Rabbit 1", "value": "23% of Control"}, {"measurement": "Serum ACE activity", "setting": "serum ACE [2]; 5.0 h, Rabbit 1", "value": "19% of Control"}, {"measurement": "Serum ACE activity", "setting": "serum ACE [2]; 20.0 h, Rabbit 1", "value": "70% of Control"}, {"measurement": "effects of angiotensin II (specificity)", "setting": "[3]", "value": "not inhibited"}]}]}
